Experimental findings from US11851449B2, “Heterocyclic amide compounds having an RORvt inhibitory action” (TAKEDA PHARMACEUTICAL COMPANY LIMITED, priority 2013, dated 2023) are described below.

Test [1] deals with T1, RORγt (Homo sapiens, UniProt P51449).
T1 sequence (P51449 1-497 isoform P51449-2): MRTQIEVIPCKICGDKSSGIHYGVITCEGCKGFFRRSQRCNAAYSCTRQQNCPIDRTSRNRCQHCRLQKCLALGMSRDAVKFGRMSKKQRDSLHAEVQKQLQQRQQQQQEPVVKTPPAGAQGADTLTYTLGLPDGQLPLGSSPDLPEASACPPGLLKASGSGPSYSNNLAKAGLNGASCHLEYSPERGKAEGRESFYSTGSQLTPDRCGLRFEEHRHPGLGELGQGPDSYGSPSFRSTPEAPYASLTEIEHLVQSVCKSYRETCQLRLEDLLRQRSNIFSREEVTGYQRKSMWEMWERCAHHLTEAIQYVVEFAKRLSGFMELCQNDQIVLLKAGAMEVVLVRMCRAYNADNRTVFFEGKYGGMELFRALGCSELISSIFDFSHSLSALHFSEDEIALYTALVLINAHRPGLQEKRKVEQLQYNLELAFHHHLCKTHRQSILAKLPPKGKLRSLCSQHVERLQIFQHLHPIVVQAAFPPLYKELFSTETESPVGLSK
As to the kind of experiment: Jurkat reporter test (human IL-17 ROR response element luciferase reporter). The settings on record: read-out: luminescence level inhibitory rate (%) at test compound 3 μM. It counts as cell-based. Here is the method:
The Jurkat cells used for the reporter test were cultured in a culture medium (RPMI (Invitrogen), 10% FCS (AusGeneX), 100 U/mL penicillin, 100 μg/mL streptomycin). On the day of the test, 4×10^7 cells were recovered by a centrifugal operation (1000 rpm, 5 min.) and suspended in PBS (phosphate buffered saline) (Invitrogen). Thereafter, the cells were recovered again by a centrifugal operation, and suspended in 2 mL of R buffer (NEON transfection kit, Invitrogen). […] Gene transfer was performed by Electroporation apparatus (NEON, Invitrogen) under the conditions of pulse voltage 1350 V, interval 10 milliseconds, number of times 3. The cells after gene transfer were suspended in 40 mL of a reaction medium (RPMI, 10% Lipid reduced FCS (HyClone), 10 mM HEPES (pH 7.5), 100 U/mL penicillin, 100 μg/mL streptomycin, 5 μM lovastatin), and plated in a 96 well plate by 90 μL. A test compound diluted with the reaction medium was added by 10 μL, and the cells were cultured overnight in an incubator. Bright-Glo (Promega) was added by 100 μL, and the mixture was stirred at room temperature for 10 min, and the luminescence level was measured by Envision (PerkinElmer).
On the technique in general: In a reporter assay the amount or activity of a reporter protein is the signal.

The target in test [2] is T1, RORγt. Kind of test: RORγt binding test (TR-FRET, fluorescent-labeled cholesterol). The conditions noted are these: read-out: binding inhibitory rate (%) of fluorescent-labeled cholesterol to RORγt at test compound 1 μM. Here is the method: The binding activity of the test compound to RORγt was measured by a time resolved fluorescence resonance energy transfer method (TR-FRET) utilizing histidine-tagged RORγt, fluorescent-labeled cholesterol (BODIPY-cholesterol, AVIVA), and terbium-labeled anti-histidine tag antibody (Invitrogen). First, a test compound diluted with an assay buffer (20 mM Tris-HCl (pH 7.5), 100 mM NaCl, 1 mM DTT, 0.1% BSA) was added to a 384 well plate by 3 μL. Then, RORγt diluted with an assay buffer to 240 nM was added by 3 μL, after which fluorescent-labeled cholesterol diluted with the assay buffer to 12 μM was added by 3 μL, and the mixture was stood at room temperature for 20 min. Thereafter, a terbium-labeled anti-histidine tag antibody diluted with the assay buffer to 8 nM was added by 3 μL. The mixture was stood at room temperature for 20 min, and fluorescence intensity (excitation wavelength 320 nm, fluorescence wavelength 520 nm, delay time 100 microseconds) was measured by Envision (PerkinElmer).

The target of test [3] is T1, RORγt. As to the kind of experiment: Cofactor recruitment test (Alpha Screen, biotinylated SRC-1 peptide). The format is biochemical. The conditions noted are these: read-out: signal value inhibitory rate (%) at test compound 1 μM. As for the experimental part:
Cofactor Recruitment Test
Cofactor recruitment test was performed by Alpha Screen (Histidine Detection Kit, PerkinElmer) method. First, a test compound was diluted with an assay buffer (50 mM Tris-HCl (pH 7.5), 50 mM KCl, 1 mM DTT, 0.1% BSA) and added to a 384 well plate by 5 μL. […] The mixture was stood in a dark place for 1 hr, and the signal value was measured by Envision (PerkinElmer).

Setting [4] is: test compound 3 μM, Jurkat cells.

Like-named read-outs stand apart in the source and are kept apart here.

For `COCc1ccc([C@@H](NC(=O)Cn2nc(C)ccc2=O)C(=O)Nc2cc(F)c([Si](C)(C)C)c(F)c2)cc1` [Example 61, (2R)—N-(3,5-difluoro-4-(trimethylsilyl)phenyl)-2-(4-(methoxymethyl)phenyl)-2-(((3-methyl-6-oxopyridazin-1(6H)-yl)acetyl)amino)acetamide], the inhibition at 3 µM on RORγt [1] (Jurkat) was 100%. For the same compound, the figures for the inhibition at 1 µM on RORγt [2] and at RORγt [3] were 102% and 97%, respectively.

As to `COCc1ccc([C@@H](NC(=O)CC2CCOCC2)C(=O)Nc2ccc([Si](C)(C)C)c(F)c2)cc1` [Example 89, (2R)—N-(3-fluoro-4-(trimethylsilyl)phenyl)-2-(4-(methoxymethyl)phenyl)-2-((tetrahydro-2H-pyran-4-ylacetyl)amino)acetamide], at RORγt [1] (Jurkat), the inhibition at 3 µM came out at 101%. The inhibition at 1 µM at RORγt [2] amounted to 103%; on RORγt [3], 95.5%.

Regarding `COc1ccc(C(NC(=O)Cc2ccn(C)n2)C(=O)Nc2ccc([Si](C)(C)C)cc2)cc1` (stereo not drawn) [Example 19, 2-(4-methoxyphenyl)-2-(((1-methyl-1H-pyrazol-3-yl)acetyl)amino)-N-(4-(trimethylsilyl)phenyl)acetamide], the inhibition at 3 µM on RORγt [1] (Jurkat) was determined as 84.7%. Further, the values for the inhibition at 1 µM at RORγt [2] and at RORγt [3] were 101% and 50.7%, respectively.

For `COc1ccc(C(NC(=O)N2CCC(O)C2)C(=O)Nc2ccc([Si](C)(C)C)c(F)c2)cc1` (stereo not drawn) [Example 29, N-(2-((3-fluoro-4-(trimethylsilyl)phenyl)amino)-1-(4-methoxyphenyl)-2-oxoethyl)-3-hydroxypyrrolidine-1-carboxamide], the inhibition at 3 µM at RORγt [1] (Jurkat) worked out at 99.2%. Also, the inhibition at 1 µM was 101% on RORγt [2] and 92.3% on RORγt [3].

For `COCc1ccc(C(NC(=O)[C@@H]2CNC(=O)C2)C(=O)Nc2ccc(CC(C)(C)C)c(F)c2)cc1` (mixture of isomers) [Example 110, (3S)—N-(2-((4-(2,2-dimethylpropyl)-3-fluorophenyl)amino)-1-(4-(methoxymethyl)phenyl)-2-oxoethyl)-5-oxopyrrolidine-3-carboxamide], the inhibition at 3 µM at RORγt [1] (setting [4]) came to 95.4%. Besides, the inhibition at 1 µM on RORγt [2] came out at 99.6%; at RORγt [3] it was 71.1%.

Turning to `COCc1ccc([C@@H](NC(=O)C2CNC(=O)C2)C(=O)Nc2ccc(CC(C)(C)C)c(F)c2)cc1` (stereo in doubt) [Example 115, (3S)-N-((1R)-2-((4-(2,2-dimethylpropyl)-3-fluorophenyl)amino)-1-(4-(methoxymethyl)phenyl)-2-oxoethyl)-5-oxopyrrolidine-3-carboxamide], the inhibition at 3 µM at RORγt [1] (setting [4]) is 97.3%. The inhibition at 1 µM is 102% at RORγt [2] and 71.6% at RORγt [3].

With `COCc1ccc(C(NC(=O)Cn2ncc3ccccc32)C(=O)Nc2cc(F)c([Si](C)(C)C)cc2F)cc1` (stereo not drawn) [Example 47, N-(2,5-difluoro-4-(trimethylsilyl)phenyl)-2-((1H-indazol-1-ylacetyl)amino)-2-(4-(methoxymethyl)phenyl)acetamide], the inhibition at 3 µM at RORγt [1] (Jurkat) came out at 100%. Also, the inhibition at 1 µM amounted to 100% on RORγt [2] and 92.4% on RORγt [3].

Consider `COCc1ccc([C@@H](NC(=O)[C@H]2CNC(=O)C2)C(=O)Nc2ccc([Si](C)(C)C)c(F)c2)cc1` [Example 54, (3R)—N-((1R)-2-((3-fluoro-4-(trimethylsilyl)phenyl)amino)-1-(4-(methoxymethyl)phenyl)-2-oxoethyl)-5-oxopyrrolidine-3-carboxamide], for which the inhibition at 3 µM on RORγt [1] (Jurkat) was 99%. In addition, the inhibition at 1 µM at RORγt [2] stood at 102%; on RORγt [3] it was 95.6%.

Regarding `COc1ccc(C(NC(=O)C2CNC(=O)C2)C(=O)Nc2ccc([Si](C)(C)C)c(F)c2)cc1` (stereo not drawn) [Example 28, N-(2-((3-fluoro-4-(trimethylsilyl)phenyl)amino)-1-(4-methoxyphenyl)-2-oxoethyl)-5-oxopyrrolidine-3-carboxamide], the inhibition at 3 µM at RORγt [1] (Jurkat) worked out at 98%. Moreover, the inhibition at 1 µM was 100% at RORγt [2] and 88% at RORγt [3].

Take `COc1ccc([C@@H](NC(=O)c2cc(O)no2)C(=O)Nc2cc(F)c([Si](C)(C)C)c(F)c2)cc1` [Example 99, N-((1R)-2-((3,5-difluoro-4-(trimethylsilyl)phenyl)amino)-1-(4-methoxyphenyl)-2-oxoethyl)-3-hydroxy-1,2-oxazole-5-carboxamide]: at RORγt [1] (Jurkat), the inhibition at 3 µM was determined as 99.9%. Further, the inhibition at 1 µM at RORγt [2] amounted to 102%; at RORγt [3] it was 94.3%.

`COCc1ccc(C(NC(=O)Cc2cnn(C)c2)C(=O)Nc2ccc([Si](C)(C)C)cc2)cc1` (stereo not drawn) [Example 22, 2-(4-(methoxymethyl)phenyl)-2-(((1-methyl-1H-pyrazol-4-yl)acetyl)amino)-N-(4-(trimethylsilyl)phenyl)acetamide]: on RORγt [1] (Jurkat), the inhibition at 3 µM is 97.2%. For the same compound, the inhibition at 1 µM came to 101% on RORγt [2] and 90.6% on RORγt [3].

Turning to `COCc1ccc(C(NC(=O)Cn2cnccc2=O)C(=O)Nc2cc(F)c([Si](C)(C)C)cc2F)cc1` (stereo not drawn) [Example 45, N-(2,5-difluoro-4-(trimethylsilyl)phenyl)-2-(4-(methoxymethyl)phenyl)-2-(((6-oxopyrimidin-1(6H)-yl)acetyl)amino)acetamide], the inhibition at 3 µM at RORγt [1] (Jurkat) was 101%. Further, the values for the inhibition at 1 µM at RORγt [2] and at RORγt [3] were 102% and 94.1%, respectively.

On to `COc1ccc([C@@H](NC(=O)N2CC[C@@H](O)C2)C(=O)Nc2ccc([Si](C)(C)C)c(F)c2)cc1` [Example 71, (3R)—N-((1R)-2-((3-fluoro-4-(trimethylsilyl)phenyl)amino)-1-(4-methoxyphenyl)-2-oxoethyl)-3-hydroxypyrrolidine-1-carboxamide], for which the inhibition at 3 µM on RORγt [1] (Jurkat) amounted to 99%. Besides, the inhibition at 1 µM at RORγt [2] was 101%; on RORγt [3], 89.9%.

Take `COCc1ccc([C@@H](NC(=O)[C@@H]2CNC(=O)C2)C(=O)Nc2cc(F)c([Si](C)(C)C)c(F)c2)cc1` [Example 52, (3S)—N-((1R)-2-((3,5-difluoro-4-(trimethylsilyl)phenyl)amino)-1-(4-(methoxymethyl)phenyl)-2-oxoethyl)-5-oxopyrrolidine-3-carboxamide]: on RORγt [1] (Jurkat), the inhibition at 3 µM was determined as 100%. Moreover, the inhibition at 1 µM was found to be 102% on RORγt [2] and 98.7% at RORγt [3].

In the case of `COCc1ccc([C@@H](NC(=O)Cc2nnc(C)o2)C(=O)Nc2ccc(C(C)(C)C)c(F)c2)cc1` [Example 105, (2R)—N-(4-tert-butyl-3-fluorophenyl)-2-(4-(methoxymethyl)phenyl)-2-(((5-methyl-1,3,4-oxadiazol-2-yl)acetyl)amino)acetamide], the inhibition at 3 µM on RORγt [1] (setting [4]) turned out to be 100%. Further, the inhibition at 1 µM on RORγt [2] turned out to be 101%; on RORγt [3], 85.5%.

Regarding `Cn1ncc2cc([C@@H](NC(=O)[C@@H]3CNC(=O)C3)C(=O)Nc3ccc([Si](C)(C)C)c(F)c3)ccc21` [Example 112, (3S)—N-((1R)-2-((3-fluoro-4-(trimethylsilyl)phenyl)amino)-1-(1-methyl-1H-indazol-5-yl)-2-oxoethyl)-5-oxopyrrolidine-3-carboxamide], the inhibition at 3 µM on RORγt [1] (Jurkat) turned out to be 100%. Moreover, the inhibition at 1 µM at RORγt [2] turned out to be 103%; on RORγt [3], 83.2%.
